# US8802597B2, “Herbicidal pyrimidines” (E I du Pont de Nemours and Company, priority 2003, dated 2014)
# Key:
# Format in all cases: in vivo
# [1] = system: blackgrass (Alopecurus myosuroides); assay: Test B postemergence; conditions: scale 0 to 100 (0 no effect, 100 complete control)
# Procedure, shortened: (§1)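 Scores reflect visual comparison with untreated controls, where 0 means no effect and 100 complete control. Plants stayed 13 to 15 days in the greenhouse after pre- or postemergence treatment with compounds carried in a non-phytotoxic solvent and surfactant.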
# [2] = system: wild oat (Avena fatua); assay: Test B postemergence; conditions: scale 0 to 100 (0 no effect, 100 complete control)
# Procedure, shortened: as §1
# [3] = system: umbrella sedge (Cyperus difformis); assay: Test B flooded paddy test; conditions: Flood, scale 0 to 100
# Procedure, shortened: (§2)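 Plants were grown to the 2-leaf stage before treatment, then kept in a greenhouse for 13 to 15 days. Injury was rated visually against untreated controls on a 0 to 100 scale, where 0 is no effect and 100 is complete control.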
# [4] = system: rice (Oryza sativa); assay: Test B flooded paddy test; conditions: Flood, scale 0 to 100
# Procedure, shortened: as §2
# [5] = system: duck salad (Heteranthera limosa); assay: Test B flooded paddy test; conditions: Flood, scale 0 to 100
# Procedure, shortened: as §2
# [6] = system: barnyardgrass (Echinochloa crus-galli); assay: Test B flooded paddy test; conditions: Flood, scale 0 to 100
# Procedure, shortened: as §2
# [7] = system: morningglory (Ipomoea coccinea); assay: Test B pre/postemergence; conditions: for Morningglory plant response rating: Postemergence; for Plant response rating, Morningglory: Preemergence
# Procedure, shortened: as §1
# [8] = system: cocklebur (Xanthium strumarium); assay: Test B pre/postemergence; conditions: for Cocklebur plant response rating: Postemergence; for Plant response rating, Cocklebur: Preemergence
# Procedure, shortened: as §1
# [9] = system: Surinam grass (Brachiaria decumbens); assay: Test B pre/postemergence; conditions: for Surinam Grass plant response rating: Postemergence; for Plant response rating, Surinam Grass: Preemergence
# Procedure, shortened: as §1
# [10] = system: pigweed (Amaranthus retroflexus); assay: Test B pre/postemergence; conditions: for Pigweed plant response rating: Postemergence; for Plant response rating, Pigweed: Preemergence
# Procedure, shortened: as §1
# [11] = system: velvetleaf (Abutilon theophrasti); assay: Test B pre/postemergence; conditions: for Velvetleaf plant response rating: Postemergence; for Plant response rating, Velvetleaf: Preemergence
# Procedure, shortened: as §1
# [12] = system: giant foxtail (Setaria faberii); assay: Test B pre/postemergence; conditions: for Foxtail, Giant plant response rating: Postemergence; for Plant response rating, Foxtail, Giant: Preemergence
# Procedure, shortened: as §1
# [13] = system: wheat (Triticum aestivum); assay: Test B pre/postemergence; conditions: for Wheat plant response rating: Postemergence; for Plant response rating, Wheat: Preemergence
# Procedure, shortened: as §1
# [14] = system: lambsquarters (Chenopodium album); assay: Test B pre/postemergence; conditions: scale 0 to 100 (0 no effect, 100 complete control); for Lambsquarters plant response rating: Postemergence
# Procedure, shortened: as §1
# [15] = system: crabgrass (Digitaria sanguinalis); assay: Test B pre/postemergence; conditions: for Crabgrass plant response rating: Postemergence; for Plant response rating, Crabgrass: Preemergence
# Procedure, shortened: as §1
# [16] = system: corn (Zea mays); assay: Test B pre/postemergence; conditions: scale 0 to 100 (0 no effect, 100 complete control); for Corn plant response rating: Postemergence
# Procedure, shortened: as §1
# [17] = system: barnyardgrass (Echinochloa crus-galli); assay: Test B pre/postemergence; conditions: for Barnyardgrass plant response rating: Postemergence; for Plant response rating, Barnyardgrass: Preemergence
# Procedure, shortened: as §1
# [18] = 62 g ai/ha, scale 0 to 100 (0 no effect, 100 complete control)
# [19] = 125 g ai/ha, scale 0 to 100 (0 no effect, 100 complete control)
# [20] = 62 g ai/ha, scale 0 to 100, 0 no effect, 100 complete control
structure (smiles),measurement,setting,value
COC(=O)c1nc(-c2ccc(Br)cc2)nc(N)c1Br [Compound 129],Blackgrass plant response rating,[1]; 62 g ai/ha,70
same,Blackgrass plant response rating,[1]; 125 g ai/ha,70
same,"Oat, Wild plant response rating",[2]; 62 g ai/ha,0
same,"Oat, Wild plant response rating",[2]; 125 g ai/ha,40
same,"Plant response rating, Sedge, Umbrella",[3]; 125 g ai/ha,90
same,"Plant response rating, Sedge, Umbrella",[3]; 500 g ai/ha,100
same,"Plant response rating, Rice",[4]; 125 g ai/ha,0
same,"Plant response rating, Rice",[4]; 500 g ai/ha,0
same,"Plant response rating, Ducksalad",[5]; 125 g ai/ha,100
same,"Plant response rating, Ducksalad",[5]; 500 g ai/ha,100
same,"Plant response rating, Barnyardgrass",[6]; 125 g ai/ha,0
same,"Plant response rating, Barnyardgrass",[6]; 500 g ai/ha,20
same,Morningglory plant response rating,[7]; [18],50
same,Morningglory plant response rating,[7]; [19],100
same,"Plant response rating, Morningglory",[7]; [20],0
same,"Plant response rating, Morningglory",[7]; [19],0
same,Cocklebur plant response rating,[8]; [18],70
same,Cocklebur plant response rating,[8]; [19],100
same,"Plant response rating, Cocklebur",[8]; [20],10
same,"Plant response rating, Cocklebur",[8]; [19],30
same,Surinam Grass plant response rating,[9]; [18],50
same,Surinam Grass plant response rating,[9]; [19],70
same,"Plant response rating, Surinam Grass",[9]; [20],0
same,"Plant response rating, Surinam Grass",[9]; [19],10
same,Pigweed plant response rating,[10]; [18],100
same,Pigweed plant response rating,[10]; [19],100
same,"Plant response rating, Pigweed",[10]; [20],80
same,"Plant response rating, Pigweed",[10]; [19],90
same,Velvetleaf plant response rating,[11]; [18],80
same,Velvetleaf plant response rating,[11]; [19],90
same,"Plant response rating, Velvetleaf",[11]; [20],50
same,"Plant response rating, Velvetleaf",[11]; [19],60
same,"Foxtail, Giant plant response rating",[12]; [18],40
same,"Foxtail, Giant plant response rating",[12]; [19],50
same,"Plant response rating, Foxtail, Giant",[12]; [20],0
same,"Plant response rating, Foxtail, Giant",[12]; [19],0
same,Wheat plant response rating,[13]; [18],0
same,Wheat plant response rating,[13]; [19],20
same,"Plant response rating, Wheat",[13]; [20],0
same,"Plant response rating, Wheat",[13]; [19],20
same,Lambsquarters plant response rating,[14]; 62 g ai/ha,100
same,Lambsquarters plant response rating,[14]; 125 g ai/ha,100
same,"Plant response rating, Lambsquarters","[14]; Preemergence, 125 g ai/ha",80
same,Crabgrass plant response rating,[15]; [18],50
same,Crabgrass plant response rating,[15]; [19],70
same,"Plant response rating, Crabgrass",[15]; [20],10
same,"Plant response rating, Crabgrass",[15]; [19],30
same,Corn plant response rating,[16]; 62 g ai/ha,70
same,Corn plant response rating,[16]; 125 g ai/ha,80
same,"Plant response rating, Corn","[16]; Preemergence, 125 g ai/ha",0
same,Barnyardgrass plant response rating,[17]; [18],60
same,Barnyardgrass plant response rating,[17]; [19],70
same,"Plant response rating, Barnyardgrass",[17]; [20],10
same,"Plant response rating, Barnyardgrass",[17]; [19],30
